{"source": "paper PMC9894920", "about": "“Development of an improved and specific inhibitor of NADPH oxidase 2 to treat traumatic brain injury” (Redox Biology, 2023)", "key": {"[1]": {"molecular_target": "T1, Bovine Xanthine Oxidase (Bos taurus, UniProt P80457)", "T1 construct": "purchased Sigma", "T1 sequence (P80457 whole entry)": "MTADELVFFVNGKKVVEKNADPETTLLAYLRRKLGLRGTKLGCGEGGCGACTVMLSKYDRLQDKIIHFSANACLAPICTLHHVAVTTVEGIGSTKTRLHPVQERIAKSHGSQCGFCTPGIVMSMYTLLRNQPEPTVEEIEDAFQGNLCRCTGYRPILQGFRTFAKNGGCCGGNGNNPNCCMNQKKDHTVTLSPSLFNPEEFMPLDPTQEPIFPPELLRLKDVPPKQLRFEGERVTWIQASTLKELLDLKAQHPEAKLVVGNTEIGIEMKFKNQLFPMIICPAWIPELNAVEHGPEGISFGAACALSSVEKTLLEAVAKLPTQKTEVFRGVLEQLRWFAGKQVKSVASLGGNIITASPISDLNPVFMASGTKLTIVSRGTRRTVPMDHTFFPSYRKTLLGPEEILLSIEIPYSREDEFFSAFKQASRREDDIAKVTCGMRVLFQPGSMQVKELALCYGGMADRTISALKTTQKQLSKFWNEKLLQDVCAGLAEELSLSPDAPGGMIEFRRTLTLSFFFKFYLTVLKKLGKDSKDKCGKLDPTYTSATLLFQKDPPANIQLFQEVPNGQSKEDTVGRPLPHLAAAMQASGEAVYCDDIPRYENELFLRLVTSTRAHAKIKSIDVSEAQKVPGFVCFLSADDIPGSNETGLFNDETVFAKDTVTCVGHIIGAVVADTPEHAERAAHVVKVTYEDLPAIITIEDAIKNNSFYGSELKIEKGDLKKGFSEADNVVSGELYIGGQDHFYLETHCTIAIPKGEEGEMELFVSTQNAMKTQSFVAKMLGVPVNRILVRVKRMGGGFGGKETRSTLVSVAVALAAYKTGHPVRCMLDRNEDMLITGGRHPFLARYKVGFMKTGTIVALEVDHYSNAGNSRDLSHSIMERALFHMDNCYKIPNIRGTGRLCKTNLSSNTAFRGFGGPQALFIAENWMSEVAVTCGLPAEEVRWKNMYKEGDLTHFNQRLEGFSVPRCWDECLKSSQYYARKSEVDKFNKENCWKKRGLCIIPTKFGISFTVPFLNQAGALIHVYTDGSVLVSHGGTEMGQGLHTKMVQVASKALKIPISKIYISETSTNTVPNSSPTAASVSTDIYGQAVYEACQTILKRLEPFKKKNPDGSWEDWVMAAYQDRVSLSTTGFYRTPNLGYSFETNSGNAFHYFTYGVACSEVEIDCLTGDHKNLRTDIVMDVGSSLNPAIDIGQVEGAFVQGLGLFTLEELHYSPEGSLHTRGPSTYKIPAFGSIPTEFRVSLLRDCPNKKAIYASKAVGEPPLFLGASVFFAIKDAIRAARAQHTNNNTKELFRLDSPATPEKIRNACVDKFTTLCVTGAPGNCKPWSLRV", "experiment": "Xanthine oxidase / hypoxanthine luminol chemiluminescence assay", "format": "biochemical", "details": "xanthine oxidase with hypoxanthine; mean ± SD, n in cell; read-out: X/XO IC50", "method": "Bovine Xanthine Oxidase (Sigma) was dialyzed in PBS to remove ammonium sulfate and stored at 4 °C. Hypoxanthine was prepared by heating in DMSO. Reactions were prepared by diluting xanthine oxidase in HBSS (final concentration 1.25 mU/mL) that contained 50 μM luminol and were preincubated 5 min with control or inhibitor before the addition of hypoxanthine at a final concentration of 0.5 mM. Luminescence was measured at 24 °C as described above."}, "[2]": {"molecular_target": "T2, NOX2 (Homo sapiens, UniProt P04839)", "T2 sequence (P04839 2-570 limits assumed)": "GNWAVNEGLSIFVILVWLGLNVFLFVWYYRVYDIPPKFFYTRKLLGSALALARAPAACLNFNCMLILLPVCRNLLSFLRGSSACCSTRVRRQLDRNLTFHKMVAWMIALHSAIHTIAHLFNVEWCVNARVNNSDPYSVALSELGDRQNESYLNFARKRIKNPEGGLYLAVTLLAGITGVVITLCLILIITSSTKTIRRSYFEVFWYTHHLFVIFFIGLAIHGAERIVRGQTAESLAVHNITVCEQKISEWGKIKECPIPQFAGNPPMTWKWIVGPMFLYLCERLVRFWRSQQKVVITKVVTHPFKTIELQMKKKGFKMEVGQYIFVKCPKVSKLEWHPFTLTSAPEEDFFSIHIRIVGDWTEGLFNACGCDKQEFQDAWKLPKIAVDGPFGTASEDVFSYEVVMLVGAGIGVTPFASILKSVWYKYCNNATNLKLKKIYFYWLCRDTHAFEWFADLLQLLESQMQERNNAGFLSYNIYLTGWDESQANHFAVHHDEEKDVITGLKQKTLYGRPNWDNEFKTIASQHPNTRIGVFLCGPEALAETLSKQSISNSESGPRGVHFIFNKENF", "T2 sequence (P13498 2-195 partner limits assumed)": "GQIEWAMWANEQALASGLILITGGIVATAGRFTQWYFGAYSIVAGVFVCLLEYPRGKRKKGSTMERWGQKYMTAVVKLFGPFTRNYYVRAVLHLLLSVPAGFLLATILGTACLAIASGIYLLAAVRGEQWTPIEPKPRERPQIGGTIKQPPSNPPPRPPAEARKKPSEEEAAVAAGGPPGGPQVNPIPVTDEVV", "experiment": "NOX2 activity in primary human granulocytes (PMN), luminol chemiluminescence", "format": "cell-based", "design": "When tested against NOX2 in primary human neutrophils; endogenous in cells; host or cells: primary human granulocytes (PMN) from donor blood", "method": "Human blood was obtained after informed consent by the Department of Transfusion Medicine (NIH Clinical Center) and provided as de-identified specimens. Human granulocytes were isolated using Percoll density fractionation as described and NOX2 activity was assessed in white polypropylene flat bottom 96 well plates following 15 min of preincubation at 37 °C with compounds or vehicle controls using 50 μM luminol as a chemiluminescence enhancer in an assay volume of 100 μl RPMI1640 with 1.1 × 10^5 cells/well in Varioskan Lux luminometer for 30 cycles of 1 s per well (approximately 1 h)."}, "[3]": {"molecular_target": "T3, NOX5 (Homo sapiens, UniProt Q96PH1)", "T3 sequence (Q96PH1 1-719 isoform Q96PH1-4)": "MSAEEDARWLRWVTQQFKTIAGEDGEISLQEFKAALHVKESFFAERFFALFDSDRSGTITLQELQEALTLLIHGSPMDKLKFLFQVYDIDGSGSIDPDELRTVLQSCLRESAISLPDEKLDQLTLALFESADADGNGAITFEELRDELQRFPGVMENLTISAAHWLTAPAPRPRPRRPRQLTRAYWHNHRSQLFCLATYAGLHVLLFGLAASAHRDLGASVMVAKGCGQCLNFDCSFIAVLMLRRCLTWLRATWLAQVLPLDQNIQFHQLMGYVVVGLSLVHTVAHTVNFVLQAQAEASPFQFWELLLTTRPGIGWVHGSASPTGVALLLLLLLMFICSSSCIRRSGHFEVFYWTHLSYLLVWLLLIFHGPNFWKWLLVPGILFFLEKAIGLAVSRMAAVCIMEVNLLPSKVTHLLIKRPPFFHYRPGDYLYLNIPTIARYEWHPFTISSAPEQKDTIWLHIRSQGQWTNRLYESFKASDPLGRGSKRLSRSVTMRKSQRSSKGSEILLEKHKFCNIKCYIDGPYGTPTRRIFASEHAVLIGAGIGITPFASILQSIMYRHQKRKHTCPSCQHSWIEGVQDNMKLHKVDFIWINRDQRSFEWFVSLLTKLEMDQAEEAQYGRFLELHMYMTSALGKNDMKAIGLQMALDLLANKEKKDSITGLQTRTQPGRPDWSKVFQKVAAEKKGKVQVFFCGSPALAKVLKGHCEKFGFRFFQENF", "experiment": "Expi293 whole cell assay, NOX5 overexpression", "format": "cell-based", "details": "highest dose about 100x the IC50 versus NOX2", "method": "Given concerns about previous assays for specific NOX family members we here report the first use of the Expi293 Expression System (Thermo Scientific) to overexpress NOX1, 2, 3, 4, and 5 in excess of any endogenous NOX proteins present in these cells. Transfections were performed following the manufacturer's instructions using the plasmids for each NOX as described in Supplemental Table 2 except that the enhancer solution provided with the Expi293 system was not used because it promoted enzyme activation.\nAfter the times indicated in Supplemental Table 2, cells were washed and 50,000 added per well of a white 96-well plate (Greiner) along with 50 μM Luminol and 2.5 U horseradish peroxidase/mL in a volume of 90 μl for NOX1, NOX2, and NOX5. Inhibitors or vehicle controls were added and cells were incubated for 20 min at 37 °C prior to activation with the indicated stimuli. For NOX3 and NOX4 (constitutively active), cells were incubated with inhibitor or vehicle control prior to the addition of luminol and HRP. Chemiluminescence was measured every 2 min for 1 s per well at 37 °C in a Varioscan Multimode reader. AUC data were analyzed using GraphPad Prism using non-linear regression analysis after expressing relative to control alone (maximum ROS production)."}, "[4]": {"test_system": "mTBI induced cortical cell death", "experiment": "Focal cortical mTBI model, transcranial administration, cortical cell death (propidium iodide)", "format": "in vivo, mouse"}, "[5]": {"experiment": "Parallel artificial membrane permeability assay (PAMPA)", "format": "in vitro ADME", "details": "pH 7.4, PAMPA, pH7.4, read-out: Permeability(pH7.4) (PAMPA_Pion_Lipid 1e-6 cm/s)", "method": "The rat liver microsomal stability, parallel artificial membrane permeability assay (PAMPA), and aqueous kinetic solubility assay in phosphate-buffered saline (PBS) buffer were performed as described in the indicated references."}}, "note": "Where two headings read alike, the source gives them in different places.", "data": [{"compound": "Cn1ccc(S(=O)(=O)Nc2ccnc3c2c(-c2ccc4ccn(C)c4c2)cn3C2CC2)n1", "note": "[NCATS-SM7270, N-(1-cyclopropyl-3-(1-methyl-1H-indol-6-yl)-1H-pyrrolo [2,3-b]pyridin-4-yl)-1-methyl-1H-pyrazole-3-sulfonamide]", "values": [{"measurement": "IC50", "setting": "[1]", "value": "4.1 ± 5.66", "unit": "µM"}, {"measurement": "IC50", "setting": "[2]; mean of 6 donors ± S.D., read-out: IC50 against NOX2 in primary human neutrophils", "value": "4.09 ± 1", "unit": "µM"}, {"measurement": "IC50", "setting": "[2]; mean ± SD, n in cell, read-out: NOX-2 IC50 from PMN", "value": 2.15, "unit": "µM"}, {"measurement": "activity against NOX5", "setting": "[3]", "value": "only marginal activity at the highest dose tested"}, {"measurement": "cortical cell death in NOX1 deficient mice", "setting": "[4]; NOX1 KO mice, 40 μM transcranial", "value": "had no impact"}, {"measurement": "cortical cell death in NOX2 deficient mice", "setting": "[4]; NOX2 KO mice, 40 μM transcranial", "value": "had no impact"}, {"measurement": "cortical cell death in NOX4 KO mice", "setting": "[4]; NOX4 KO mice, 40 μM transcranial", "value": "significantly reduced cortical cell death"}, {"measurement": "reduction of cortical cell death", "setting": "[4]; WT mice, 40 μM transcranially immediately after mTBI", "value": "~50", "unit": "%"}, {"measurement": "dose dependence of reduction in mTBI induced cortical cell death", "setting": "[4]; WT mice, transcranial, titration 10, 50 or 100 μM", "value": "dose-dependent reduction"}, {"measurement": "Papp", "setting": "[5]", "value": 999, "unit": "×10⁻⁶ cm/s"}]}]}
